“Also recorded” adds a separate entry of the source. Where two headings read alike, the source gives them in different places.
Legend:
[1] = tested on: reserpine-induced catatonia; assay: Inhibition of reserpine-induced catatonia (preventive, oral compound 30 min before reserpine); assay type: in vivo, rat (male, OFA strain); details: rat, in vivo
Procedure: After sufficient doses of reserpine have been administered to the rat, a series of symptoms occur, more particularly ptosis, catatonia and a drop in central temperature. These symptoms are caused by the depletion of the intragranular reserve pool of biogenetic amines at the synaptic terminals.
An oral dose of the compound to be studied in aqueous solution was administered to batches of 10 male rats of the OFA strain weighing about 150 to 200 g. Thirty minutes later a dose of 5 mg/kg of reserpine was given by intraperitoneal route. Three hours after the injection of reserpine, the animals were suspended by the four paws to a horizontally stretched wire fixed at 15 cm from the ground. The catatonia animals were those which maintained the position so given for at least 30 seconds. […] The maximum score was therefore 10 per batch. An identical trial was undertaken with control animals which received reserpine but none of the compounds being studied.

catalepsy = assay: Prochlorperazine-induced catalepsy (crossing of homolateral paws); assay type: in vivo, rat; details: 5 mg/kg oral 30 min before prochlorperazine i.p.; 3 h after injection
Procedure: Additional trials were carried out on rats with Compound 1 and amantadine. These trails involved catalepsy as evidenced by the crossing of the animal's homolateral paws.

[2] = tested on: reserpine-induced catatonia; assay: Suppression of reserpine-induced catatonia (curative treatment); assay type: in vivo, rat (male, OFA strain); details: 2.5 and 5 mg/kg oral vs 80 mg/kg amantadine
Procedure: Batches of 5 male rats of the OFA strain, weighing 150 to 200 g were given 5 mg/kg of reserpine by intraperitoneal route. One hour and 45 minutes later, namely when the animals were in a state of catatonia, an aqueous dose of the compound to be studied was administered by oral route to all the animals with the exception of the control group.
The progress of the catatonia was then noted following the scale used in the tests described hereabove.
The maximum score was thus 5 per batch which means that all the animals of the batch were considered to be still in a state of catatonia.

[3] = tested on: neuroleptic-induced catatonia; assay: Suppression of neuroleptic (prochlorperazine)-induced catatonia (curative treatment); assay type: in vivo, rat (male, OFA strain); details: 5 mg/kg vs 80 mg/kg amantadine
Procedure: Batches of 5 male rats of the OFA strain were given 12.5 mg/kg of prochlorperazine by intraperitoneal route. Fifty-five minutes later, an oral dose in aqueous solution of the compound to be studied was administered to all the animals with the exception of the control group. The progress of the catatonia was noted following the same scale as that used in the tests described above.

[4] = tested on: isolated duodenum of the rat; assay: MAGNUS test: cholinolytic/spasmolytic activity on acetylcholine spasm in vitro
Source text: This test consists in determining the dose of acetylcholine which, when added to the bath, provokes spasm of the isolated duodenum of the rat. The next step consists in determining the dose of the compound under study which, when added to the bath 30 seconds before the acetylcholine, reduces the spasm.

[5] = tested on: cholinergic effects of tremorine; assay: Anti-tremorine test in vivo; design: species or system mice (male, OF1 strain)
Procedure: When injected into mice, tremorine produces peripheral effects i.e. weeping, sweating, salivation and diarrhoea and central effects i.e. tremor and akinesia. Such effects are due to an increase in the amount of intracerebral acetylcholine and serotonine.
[…] Thirty minutes later a dose of 10 mg/kg of tremorine was injected by intraperitoneal route and, at different times after this injection, note was taken of the cholinergic effects on each animal in accordance with the following scale:

[6] = Spasmolytic activity in vivo; details: at antiparkinson doses, well below the toxic dose
[7] = SPERBER et al., J. Amer. Chem. Soc., 71, 3352 (1949); cited from earlier work
[8] = SPERBER et al., J. Amer. Chem. Soc., 71, 3352 (1949); cited from earlier work; remark: listed apart in the source
[9] = tested on: arterial pressure and nictitating membrane (norepinephrine); assay: Influence on peripheral noradrenergic phenomena (norepinephrine, anaesthetized cat); details: for Contractile reaction of the nictitating membrane without electric stimulation: at 0 mg/kg: 0; for Contractile reaction of the nictitating membrane with electric stimulation: at 0 mg/kg: Compound 1 17, amantadine 20; for Increase in arterial pressure after injection of norepinephrine: at 0 mg/kg: Compound 1 26, amantadine 28
Procedure: A cat, anaesthetized with pentobarbital, received a sufficient dose of norepinephrine to increase arterial pressure but not sufficient to cause contraction of the nictitating membrane. Arterial pressure was measured at the carotid immediately after administration of the dose of norepinephrine.

CCCC(N)(CCC)CCC [Compound 1]
activity in pharmacological trials (in words) [1]: marked degree of activity | inhibition of the catalepsy (catalepsy): complete inhibition of the catalepsy | suppression of reserpine-induced catatonia (in words) [2]: suppresses reserpine-induced catatonia more rapidly than a dose of 80 mg/kg of amantadine | action against neuroleptic-induced catatonia (in words) [3]: acts against neuroleptic-induced catatonia more rapidly than does a dose of 80 mg/kg of amantadine | spasmolytic / cholinolytic activity in vitro (in words) [4]: virtually non-existent in comparison with that of atropine; also recorded: extremely weak cholinolytic action | spasmolytic / cholinolytic activity in vitro (in words) ([4]; listed as tri-n-propylmethylamine): very weak, in fact practically non-existent | antitremorine properties (in words) ([5]; 5 mg/kg Compound 1, 40 mg/kg amantadine): devoid of antitremorine properties | central cholinergic effects (normal and provoked tremor) ([5]; 5 mg/kg oral, identical to the peripheral score of 4): Identical results | cholinolytic properties in vivo (in words) ([5]; therapeutic doses): absence of cholinolytic properties | spasmolytic activity in vivo (in words) [6]: non-existent | spasmolytic activity (in words) [7]: less spasmolytic | toxicity (in words) [8]: more toxic than the corresponding trialkylethylamines | potentiation of norepinephrine / peripheral adrenergic effects (in words) ([9]; cat, i.v.): does not potentiate the effects either of exogenous norepinephrine or of endogenous norepinephrine | Contractile reaction of the nictitating membrane without electric stimulation ([9]; cumulative dose 0.1 mg/kg i.v.): 0 mm | Contractile reaction of the nictitating membrane with electric stimulation ([9]; cumulative dose 0.1 mg/kg i.v.): 15 mm | Increase in arterial pressure after injection of norepinephrine ([9]; cumulative dose 0.1 mg/kg i.v.): 18 mm Hg | Contractile reaction of the nictitating membrane without electric stimulation ([9]; cumulative dose 1 mg/kg i.v.): 0 mm | Contractile reaction of the nictitating membrane with electric stimulation ([9]; cumulative dose 1 mg/kg i.v.): 16 mm | Increase in arterial pressure after injection of norepinephrine ([9]; cumulative dose 1 mg/kg i.v.): 25 mm Hg | Contractile reaction of the nictitating membrane without electric stimulation ([9]; cumulative dose 3 mg/kg i.v.): 0 mm | Contractile reaction of the nictitating membrane with electric stimulation ([9]; cumulative dose 3 mg/kg i.v.): 17 mm | Increase in arterial pressure after injection of norepinephrine ([9]; cumulative dose 3 mg/kg i.v.): 29 mm Hg | Contractile reaction of the nictitating membrane without electric stimulation ([9]; cumulative dose 5 mg/kg i.v.): 0 mm | Contractile reaction of the nictitating membrane with electric stimulation ([9]; cumulative dose 5 mg/kg i.v.): 16 mm | Increase in arterial pressure after injection of norepinephrine ([9]; cumulative dose 5 mg/kg i.v.): 25 mm Hg | Contractile reaction of the nictitating membrane without electric stimulation ([9]; cumulative dose 10 mg/kg i.v.): 0 mm | Contractile reaction of the nictitating membrane with electric stimulation ([9]; cumulative dose 10 mg/kg i.v.): 12 mm | Increase in arterial pressure after injection of norepinephrine ([9]; cumulative dose 10 mg/kg i.v.): 22 mm Hg
